Experimental data from patent publication US20240116985A1, “STAPLED PEPTIDES AND METHODS THEREOF” (priority 2020, published 2024).
Converted amounts (≈) assume the structure as drawn. Like-named read-outs stand apart in the source and are kept apart here.

How the values were obtained:
[1] = biological target: T1, full-length beta-Catenin (Uniprot ID P35222) (Homo sapiens, UniProt P35222); test: Fluorescence polarization IC50 (beta-catenin / 5FAM-TCF4 10-53 competition); format: binding
T1 construct: 10 nM full-length beta-Catenin (Uniprot ID P35222)
T1 sequence (P35222 1-781): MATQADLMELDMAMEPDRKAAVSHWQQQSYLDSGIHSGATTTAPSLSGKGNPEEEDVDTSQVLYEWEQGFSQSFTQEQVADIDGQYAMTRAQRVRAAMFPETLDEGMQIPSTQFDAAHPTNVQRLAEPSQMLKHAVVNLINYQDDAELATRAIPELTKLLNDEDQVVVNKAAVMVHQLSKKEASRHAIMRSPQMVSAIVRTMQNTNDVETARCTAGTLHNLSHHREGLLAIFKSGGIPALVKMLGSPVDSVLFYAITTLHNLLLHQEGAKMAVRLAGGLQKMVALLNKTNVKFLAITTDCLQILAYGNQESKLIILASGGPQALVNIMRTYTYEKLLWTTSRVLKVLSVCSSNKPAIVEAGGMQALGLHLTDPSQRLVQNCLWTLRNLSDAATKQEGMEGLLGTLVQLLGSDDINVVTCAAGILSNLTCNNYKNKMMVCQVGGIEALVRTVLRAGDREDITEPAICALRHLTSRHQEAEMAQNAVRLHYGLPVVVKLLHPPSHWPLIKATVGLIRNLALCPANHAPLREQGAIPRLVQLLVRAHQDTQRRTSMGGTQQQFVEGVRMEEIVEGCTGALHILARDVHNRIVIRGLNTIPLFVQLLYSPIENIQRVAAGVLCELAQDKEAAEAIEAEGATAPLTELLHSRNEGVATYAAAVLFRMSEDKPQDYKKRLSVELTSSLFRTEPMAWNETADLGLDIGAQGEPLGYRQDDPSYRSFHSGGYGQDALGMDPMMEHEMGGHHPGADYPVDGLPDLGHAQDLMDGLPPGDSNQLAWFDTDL

[2] = Solubility in PBS; format: physicochemical
How it was run: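 Steps: ultracentrifuge the peptide PBS solution, inject the supernatant on HPLC, inject a 50 μM peptide DMSO solution as reference, then calculate solubility as area ratio (PBS/DMSO) × 50 uM.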

[3] = CHI Log D procedure; format: physicochemical
[4] = fluorescence polarization, beta-catenin, read-out: FP EC50
[5] = fluorescence polarization, read-out: beta-Catenin FP IC50

| Structure (SMILES) | Solubility [2] [µM] | CHI Log D ([3]; pH 7.4) | IC50 [1, 5] [nM] | chromatographic logD ([3]; pH 7.4, CHI Log D) | also measured |
| --- | --- | --- | --- | --- | --- |
| CC(=O)N1CCC[C@]12CC=CCCCC1(CCCC=CCCCOC(=O)N3CC[C@@](C(=O)N[C@@H](Cc4ccsc4)C(=O)N[C@@H](Cc4csc5ccccc45)C(=O)N[C@@H](CO)C(N)=O)(C3)NC(=O)[C@H](CCO)NC(=O)[C@H](Cc3ccccc3)NC(=O)[C@H](C)NC(=O)[C@H](C)NC(=O)[C@H](CN(CC(=O)O)CC(F)(F)F)NC(=O)[C@H](CC(=O)O)NC1=O)NC(=O)[C@H](CC(C)(C)C)NC(=O)[C@H](CC(=O)O)NC2=O (stereo partly drawn) [I-958, Ac-PL3-Asp-Npg-B5-Asp-TfeGA-Ala-Ala-Phe-Hse-PyrS2-3Thi-BztA-Ser-NH2] | 47 (≈ 92.8 µg/mL) | 1.417 | – | – | IC50 [1, 4]: 606 nM; IC50 ([1]; read-out: beta-Catenin FP IC50): 606 nM |
| CC[C@H](C)[C@@H]1NC(=O)[C@H](CC(=O)O)NC(=O)[C@]2(CC=CCCCC3(CCCC=CCCCCCC[C@@](C)(C(=O)N[C@@H](Cc4ccccc4)C(=O)N[C@@H](Cc4csc5ccccc45)C(=O)N[C@@H](CCC(N)=O)C(N)=O)NC(=O)[C@H](CCC(N)=O)NC(=O)[C@H](C(c4ccccc4)c4ccccc4)NC(=O)[C@H](C)NC(=O)[C@H](C)NC(=O)[C@H](CCC(=O)O)NC(=O)[C@H](CC(=O)O)NC3=O)NC1=O)CCCN2C(C)=O (stereo partly drawn) [I-725, Ac-PL3-Asp-Ile-B5-Asp-Glu-Ala-Ala-DipA-Gln-S8-Phe-BztA-Gln-NH2] | – | – | 5000 | 2.61 | Solubility ([2]; Solubility (uM)): 42 µM (≈ 82.3 µg/mL) |
| CC(=O)N1CCC[C@]12CC=CCCCC1(CCCC=CCCCCCC[C@@](C)(C(=O)N[C@@H](Cc3ccccc3)C(=O)N[C@@H](Cc3csc4ccccc34)C(=O)N[C@@H](CCC(N)=O)C(N)=O)NC(=O)[C@H](CCC(N)=O)NC(=O)[C@H](Cc3cccs3)NC(=O)[C@H](C)NC(=O)[C@H](C)NC(=O)[C@H](CCC(=O)O)NC(=O)[C@H](CC(=O)O)NC1=O)NC(=O)[C@H](C)NC(=O)[C@H](CC(=O)O)NC2=O (stereo partly drawn) [I-487, Ac-PL3-Asp-Ala-B5-Asp-Glu-Ala-Ala-2Thi-Gln-S8-Phe-BztA-Gln-NH2] | 44 (≈ 81.3 µg/mL) | 1.99 | 45 | – | IC50 ([1]; read-out: FP EC50): 45 nM |
| CC(=O)N1CCC[C@]12CC=CCCCC1(CCCC=CCCCOC(=O)N3CC[C@@](C(=O)N[C@@H](Cc4ccsc4)C(=O)N[C@@H](Cc4csc5ccccc45)C(=O)N[C@@H](CCC(N)=O)C(N)=O)(C3)NC(=O)[C@H](CC(N)=O)NC(=O)[C@H](Cc3ccccc3)NC(=O)[C@H](CCCCNC(=O)CCc3cc(C(F)(F)F)cc(C(F)(F)F)c3)NC(=O)[C@H](C)NC(=O)[C@H](CC(=O)O)NC(=O)[C@H](CC(=O)O)NC1=O)NC(=O)[C@H](CC(C)(C)C)NC(=O)[C@H](CC(=O)O)NC2=O (stereo partly drawn) [I-883, Ac-PL3-Asp-Npg-B5-Asp-Asp-Ala-[35CF3PhPr]Lys-Phe-Asn-PyrS2-3Thi-BztA-Gln-NH2] | – | – | – | 2.4 | IC50 ([1]; read-out: beta-Catenin FP IC50): 53 nM; Solubility ([2]; Solubility (uM)): 42 µM (≈ 94.2 µg/mL) |
| CC(=O)N1CCC[C@]12CC=CCCCC1(CCCC=CCCCCCC[C@@](C)(C(=O)N[C@@H](Cc3ccccc3Cl)C(=O)N[C@@H](Cc3csc4ccccc34)C(=O)N[C@@H](CCC(N)=O)C(N)=O)NC(=O)[C@H](CC(N)=O)NC(=O)[C@H](Cc3ccccc3)NC(=O)[C@H](C)NC(=O)[C@H](C)NC(=O)[C@H](CCC(=O)O)NC(=O)[C@H](CC(=O)O)NC1=O)NC(=O)[C@H](C)NC(=O)[C@H](CC(=O)O)NC2=O (stereo partly drawn) [I-435, Ac-PL3-Asp-Ala-B5-Asp-Glu-Ala-Ala-Phe-Asn-S8-2C1F-BztA-Gln-NH2] | 50 (≈ 93.1 µg/mL) | – | 70 | 2.13 | – |
| CC[C@H](C)[C@@H]1NC(=O)[C@H](CC(=O)O)NC(=O)[C@]2(CC=CCCCC3(CCCC=CCCCCCC[C@@](C)(C(=O)N[C@@H](Cc4ccccc4)C(=O)N[C@@H](Cc4csc5ccccc45)C(=O)N[C@@H](CCC(N)=O)C(N)=O)NC(=O)[C@H](CCC(N)=O)NC(=O)[C@H](Cc4ccccc4)NC(=O)[C@H](C)NC(=O)[C@H](C)NC(=O)[C@H](CCC(=O)O)NC(=O)[C@H](CC(=O)O)NC3=O)NC1=O)CCCN2C(=O)Cc1ccccc1 (stereo partly drawn) [I-600, Bnc-PL3-Asp-Ile-B5-Asp-Glu-Ala-Ala-Phe-Gln-S8-Phe-BztA-Gln-NH2] | 47 (≈ 92.1 µg/mL) | 2.694 | – | – | IC50 ([1]; read-out: FP EC50): 796 nM; IC50 ([1]; read-out: beta-Catenin FP IC50, fluorescence polarization): 796 nM |
| CC(=O)N1CCC[C@]12CC=CCCCC1(CCCC=CCCCCCC[C@@](C)(C(=O)N[C@@H](Cc3cccc(F)c3)C(=O)N[C@@H](Cc3csc4ccccc34)C(=O)N[C@@H](CCC(N)=O)C(N)=O)NC(=O)[C@H](CCC(N)=O)NC(=O)[C@H](Cc3ccsc3)NC(=O)[C@H](C)NC(=O)[C@H](C)NC(=O)[C@H](CCC(=O)O)NC(=O)[C@H](CC(=O)O)NC1=O)NC(=O)[C@H](C)NC(=O)[C@H](CC(=O)O)NC2=O (stereo partly drawn) [I-429, Ac-PL3-Asp-Ala-B5-Asp-Glu-Ala-Ala-3Thi-Gln-S8-3FF-BztA-Gln-NH2] | 50 (≈ 93.3 µg/mL) | – | 146 | 2.07 | – |
| CC(=O)N1CCC[C@]12CC=CCCCC1(CCCC=CCCCCCC[C@@](C)(C(=O)N[C@@H](Cc3ccccc3)C(=O)N[C@@H](Cc3csc4ccccc34)C(=O)N[C@@H](CCC(N)=O)C(N)=O)NC(=O)[C@H](C(C)C)NC(=O)[C@H](Cc3ccccc3)NC(=O)[C@H](C)NC(=O)[C@H](C)NC(=O)[C@H](CC(=O)O)NC(=O)[C@H](CC(=O)O)NC1=O)NC(=O)[C@H](CCC(N)=O)NC(=O)[C@H](CC(=O)O)NC2=O (stereo partly drawn) [I-347, Ac-PL3-Asp-Gln-B5-Asp-Asp-Ala-Ala-Phe-Val-S8-Phe-BztA-Gln-NH2] | 50 (≈ 92.8 µg/mL) | 1.956 | – | – | IC50 ([1]; Table E2-1, read-out: beta-Catenin FP IC50): 121 nM; IC50 [1, 4]: 121 nM |
| CC(=O)N1CCC[C@]12CC=CCCCC1(CCCC=CCCCCCC[C@@](C)(C(=O)N[C@@H](Cc3ccccc3[N+](=O)[O-])C(=O)N[C@@H](Cc3csc4ccccc34)C(=O)N[C@@H](CCC(N)=O)C(N)=O)NC(=O)[C@H](CC(N)=O)NC(=O)[C@H](Cc3ccccc3)NC(=O)[C@H](C)NC(=O)[C@H](C)NC(=O)[C@H](CCC(=O)O)NC(=O)[C@H](CC(=O)O)NC1=O)NC(=O)[C@H](C)NC(=O)[C@H](CC(=O)O)NC2=O (stereo partly drawn) [I-441, Ac-PL3-Asp-Ala-B5-Asp-Glu-Ala-Ala-Phe-Asn-S8-2NO2F-BztA-Gln-NH2] | – | – | 133 | 2 | Solubility ([2]; Solubility (uM)): 38 µM (≈ 71.1 µg/mL) |
| CC[C@H](C)[C@@H]1NC(=O)[C@H](CC(=O)O)NC(=O)[C@]2(CC=CCCCC3(CCCC=CCCCCCC[C@@](C)(C(=O)N[C@@H](Cc4ccccc4)C(=O)N[C@@H](Cc4csc5ccccc45)C(=O)N[C@@H](CCC(N)=O)C(N)=O)NC(=O)[C@H](CCC(N)=O)NC(=O)[C@H](Cc4ccccc4)NC(=O)[C@H](C)NC(=O)[C@H](C)NC(=O)[C@H](Cc4ccc(C(=O)O)cc4)NC(=O)[C@H](CC(=O)O)NC3=O)NC1=O)CCCN2C(C)=O (stereo partly drawn) [I-607, Ac-PL3-Asp-Ile-B5-Asp-4COOHF-Ala-Ala-Phe-Gln-S8-Phe-BztA-Gln-NH2] | 48 (≈ 93.4 µg/mL) | 2.416 | 253 | – | IC50 ([1]; read-out: FP EC50): 253 nM |
| CC(=O)N1CCC[C@]12CC=CCCCC1(CCCC=CCCCOC(=O)N3CC[C@@](C(=O)N[C@@H](Cc4ccccc4Cl)C(=O)N[C@@H](Cc4csc5ccccc45)C(=O)N[C@H](C(N)=O)[C@@H](C)O)(C3)NC(=O)[C@H](CC(C)C)NC(=O)[C@H](Cc3ccccc3)NC(=O)[C@H](C)NC(=O)[C@H](C)NC(=O)[C@H](CC(=O)O)NC(=O)[C@H](CC(=O)O)NC1=O)NC(=O)[C@H](CC(C)(C)C)NC(=O)[C@H](CC(=O)O)NC2=O (stereo partly drawn) [I-1068, Ac-PL3-Asp-Npg-B5-Asp-Asp-Ala-Ala-Phe-Leu-PyrS2-2C1F-BztA-Thr-NH2] | 13 (≈ 24.9 µg/mL) | 2.053 | – | – | IC50 [1, 4]: 950 nM; IC50 ([1]; read-out: beta-Catenin FP IC50): 950 nM |
| C[C@@H]1NC(=O)[C@H](C)NC(=O)[C@H](CC(=O)O)NC(=O)[C@H](CC(=O)O)NC(=O)C2(CCCC=CCCCOC(=O)N3CC[C@@](C(=O)N[C@@H](Cc4ccsc4)C(=O)N[C@@H](Cc4csc5ccccc45)C(=O)N[C@@H](C(N)=O)[C@H](C)O)(C3)NC(=O)[C@H](CC(N)=O)NC(=O)[C@H](Cc3ccccc3)NC1=O)CCCC=CC[C@]1(CCCN1C(=O)CN=[N+]=[N-])C(=O)N[C@@H](CC(=O)O)C(=O)N[C@@H](CC(C)(C)C)C(=O)N2 (stereo partly drawn) [I-1058, AzAc-PL3-Asp-Npg-B5-Asp-Asp-Ala-Ala-Phe-Asn-PyrS2-3Thi-BztA-dThr-NH2] | 42 (≈ 81.2 µg/mL) | – | – | – | IC50 ([1]; FP EC50 (nM), fluorescence polarization, beta-catenin): 14 nM; chromatographic logD ([3]; pH 7.4): 2.25 |
